According to patent US20240180883A1, “TREATMENT OF MIGRAINE” (Allergan Pharmaceuticals International Limited, priority 2020, published 2024):

What was measured:
[1] = cited from earlier work; for liver enzyme levels: clinical trials
[2] = Study B: adverse events; settings: Treatment B: rifampin 600 mg once daily for 5 days, fasted

In the case of `O=C(N[C@@H]1CC[C@@H](c2cccc(F)c2F)CN(CC(F)(F)F)C1=O)N1CCC(n2c(=O)[nH]c3ncccc32)CC1` [telcagepant], the liver enzyme levels [1] is listed as “elevated liver enzyme levels were observed”.
In the case of `O=C(CN1C(=O)C2(CCCC2)NC[C@H]1c1cc(F)cc(F)c1)Nc1ccc2c(c1)C[C@@]1(C2)C(=O)Nc2ncccc21` [MK-3207], the liver enzyme levels [1] is listed as “elevated liver enzyme levels were observed”.
With `CO[C@H]1/C=C/O[C@@]2(C)Oc3c(C)c(O)c4c(O)c(c(/C=N/N5CCN(C)CC5)c(O)c4c3C2=O)NC(=O)/C(C)=C\C=C\[C@H](C)[C@H](O)[C@@H](C)[C@@H](O)[C@@H](C)[C@H](OC(C)=O)[C@@H]1C` [rifampin, reference compound] the “AEs leading to discontinuation” value [2] was 0 n (%), the “Any AE” value [2] was 1 (3.3) n (%) and the Deaths [2] was 0 n (%). For the same compound, the “Dry Mouth” value [2] was 0 n (%), the Flatulence [2] was 0 n (%) and the “Gastrointestinal Disorders” value [2] was 0 n (%). For the same compound, the Headache [2] was 1 (3.3) n (%), the Nausea [2] was 0 n (%) and the “Nervous System Disorders” value [2] was 1 (3.3) n (%). For the same compound, the SAEs [2] was 0 n (%), the TEAEs [2] was 1 (3.3) n (%) and the “Treatment related TEAEs” value [2] was 1 (3.3) n (%).
In the case of `NCCCC[C@H](NC(=O)[C@@H](Cc1cc(Br)c(O)c(Br)c1)NC(=O)N1CCC(N2Cc3ccccc3NC2=O)CC1)C(=O)N1CCN(c2ccncc2)CC1` [olcegepant], the “efficacy in the acute treatment of migraine” value ([1]; IV formulation) is listed as “efficacious in the acute treatment of migraine” and the oral bioavailability ([1]; human, in vivo, po) is listed as “not orally bioavailable”.
